Literature values in paper PMC3867298 (Clinical cancer research : an official journal of the …, 2010).

Tested on: renal cell carcinoma patients
Conditions: 375 renal cell carcinoma patients, recommended phase 2 dose; cited from earlier work

SMILES: CCN(CC)CCNC(=O)c1c(C)[nH]c(/C=C2\C(=O)Nc3ccc(F)cc32)c1C [sunitinib]
- Patients with at least 1 treatment-related dose reduction: 32%
